This note sets out measurements from US8492559B2, “Substituted indole compounds” (Gruenenthal GmbH, priority 2009, dated 2013).

Molecules are shown by their SMILES.

The assay concerns the target T1, B1R receptor of the rat (rB1R) (Rattus norvegicus, UniProt P97583).
T1 construct: expressed in transfected cells; host or cells: CHO K1 cells
T1 sequence (P97583 1-337): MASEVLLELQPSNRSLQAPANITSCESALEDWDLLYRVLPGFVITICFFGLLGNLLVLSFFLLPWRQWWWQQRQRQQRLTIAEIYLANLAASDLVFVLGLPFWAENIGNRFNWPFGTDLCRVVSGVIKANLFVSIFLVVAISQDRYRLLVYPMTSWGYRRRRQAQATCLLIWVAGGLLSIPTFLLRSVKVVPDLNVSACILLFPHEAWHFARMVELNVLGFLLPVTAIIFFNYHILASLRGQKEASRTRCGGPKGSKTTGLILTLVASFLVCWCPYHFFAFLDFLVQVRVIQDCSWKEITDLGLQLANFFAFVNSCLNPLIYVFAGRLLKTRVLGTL
The assay is described as follows: Functional investigation on the bradykinin 1 receptor (B1R), FLIPR Ca2+ assay, rB1R cells. It is filed as cell-based. Conditions: CHO-K1, 10 μM test substance; CHO K1 cells with rat B1R; agonist Des-Arg9 bradykinin; % of maximum achievable inhibition; read-out: B1R antagonism, rat [10 μM] % inhibition. As to the method: The indication in % activation is based on the Ca^2+ signal after addition of Lys-Des-[…] bradykinin (0.5 nM) or Des-[…] bradykinin (100 nM). Antagonists lead to a suppression of the Ca^2+ influx following administration of the agonist. The % inhibition in comparison with the maximum achievable inhibition is indicated. […] According to this assay, the Ca^2+ inflow through the channel is quantified with the aid of a Ca^2+-sensitive dye (Fluo-4 type, Molecular Probes Europe BV, Leiden, Netherlands) in a fluorescent imaging plate reader (FLIPR, Molecular Devices, Sunnyvale, USA). […] For functional investigations these cells are plated-out onto black 96-well plates with a clear base (BD Biosciences, Heidelberg, Germany or Greiner, Frickenhausen, Germany) in a density of 20,000-35,000 cells/well. Overnight the cells are incubated at 37° C. and 5% CO2 in culture medium (hB1R cells: Ham's Nutrient Mixture F12, Gibco Invitrogen GmbH, Karlsruhe, Germany or DMEM, Sigma-Aldrich, Taufkirchen, Germany; rB1R cells: D-MEM/F12, Gibco Invitrogen, Karlsruhe, Germany) with 10 vol. % FBS (foetal bovine serum, Gibco Invitrogen GmbH, Karlsruhe, Germany or PAN Biotech GmbH, Aidenbach, Germany). On the following day the cells are loaded with 2.13 μM Fluo-4 (Molecular Probes Europe BV, Leiden, Netherlands) in HBSS buffer (Hank's buffered saline solution, Gibco Invitrogen GmbH, Karlsruhe, Germany) with 2.5 mM probenecid (Sigma-Aldrich, Taufkirchen, Germany) and 10 mM HEPES (Sigma-Aldrich, Taufkirchen, Germany) for 60 min at 37° C. […] Sigma-Aldrich, Taufkirchen, Germany), 5.6 mM glucose and 0.05% gelatine (Merck KGaA, Darmstadt, Germany) is added. After a further incubation of 20 minutes at room temperature, the plates are inserted into the FLIPR for Ca^2+ measurement. Alternatively they are washed with buffer A (15 mM HEPES, 80 mM NaCl, 5 mM KCl, 1.2 mM CaCl2, 0.7 mM MgSO4, 2 g/l glucose, 2.5 mM probenecid) and loaded with buffer A with added 2.5 μM Fluo-4 and 0.025% Pluronic F127 (Sigma-Aldrich, Taufkirchen, Germany). The cells are then washed twice with buffer A and incubated for 30 minutes with buffer A, which additionally contains 0.05% BSA and 0.05% gelatine, at room temperature and then used for Ca^2+ measurement in the FLIPR. The Ca^2+-dependent fluorescence is measured here before and after addition of substances (λex=488 nm, λem=540 nm). The quantification is performed by measuring the highest fluorescence intensity (FC, fluorescence counts) over time. The FLIPR protocol comprises two additions of substance. […] Lys-Des-[…] bradykinin>=50 nM; rB1R: […] Antagonists lead to a suppression of the Ca^2+ inflow. The % inhibition in comparison with the maximum achievable inhibition is calculated. The substances are added in varying concentrations in order to determine the IC50 value. Double or triple determinations (n=2 or n=3) are performed and these are repeated in at least one further independent experiment (N>=2).

What is called inhibition is the relative decrease from the control value, in per cent. As to `Cc1cc(S(=O)(=O)Nc2cccc3ccn(CCC(=O)NCCN4CCC(c5cccs5)(N(C)C)CC4)c23)c(C)cc1Cl` [G_CC-73, 3-[7-[[(4-Chloro-2,5-dimethyl-phenyl)sulfonyl]amino]-1H-indol-1-yl]-N-[2-(4-dimethylamino-4-thiophen-2-yl-piperidin-1-yl)-ethyl]-propionamide], the inhibition at 10 µM was found to be 55%.

For the compound `O=C(Cn1ccc2cccc(NS(=O)(=O)c3ccccc3C(F)(F)F)c21)N1CCC2(CC1)CCN(c1ccncc1)CC2` [G_CC-53, N-[1-[2-Oxo-2-(3-pyridin-4-yl-3,9-diazaspiro[5.5]undecan-9-yl)-ethyl]-1H-indol-7-yl]-2-(trifluoromethyl)-benzenesulfonic acid amide], the inhibition at 10 µM was 101%. With `COc1cc(C)c(S(=O)(=O)Nc2cccc3ccn(CC(=O)N4CCN(c5ncccn5)CC4)c23)c(C)c1` [G_CC-6, 4-Methoxy-2,6-dimethyl-N-[1-[2-oxo-2-(4-pyrimidin-2-yl-piperazin-1-yl)-ethyl]-1H-indol-7-yl]-benzenesulfonic acid amide], the inhibition at 10 µM is 73%. For `CCN1CCN(CCCNC(=O)CCn2ccc3cccc(NS(=O)(=O)c4c(C)cc(OC)cc4C)c32)CC1` [G_CC-56, N-[3-(4-Ethyl-piperazin-1-yl)-propyl]-3-[7-[[(4-methoxy-2,6-dimethyl-phenyl)sulfonyl]amino]-1H-indol-1-yl]-propionamide], the inhibition at 10 µM worked out at 54%.

As to `Cc1cc(S(=O)(=O)Nc2ccc3ccn(CCC(=O)N4CCC5(CC4)CCN(c4ccncc4)CC5)c3c2)c(C)cc1Cl` [G_CC-65, 4-Chloro-2,5-dimethyl-N-[1-[3-oxo-3-(3-pyridin-4-yl-3,9-diazaspiro[5.5]undecan-9-yl)-propyl]-1H-indol-6-yl]-benzenesulfonic acid amide], the inhibition at 10 µM amounted to 53%. The result for `COc1cc(C)c(S(=O)(=O)Nc2cccc3ccn(CCC(=O)N4CCC(CCN5CCCC5)CC4)c23)c(C)c1` [G_CC-41, 4-Methoxy-2,6-dimethyl-N-[1-[3-oxo-3-[4-(2-pyrrolidin-1-yl-ethyl)-piperidin-1-yl]-propyl]-1H-indol-7-yl]-benzenesulfonic acid amide] reads 76%; that for `COc1cc(C)c(S(=O)(=O)Nc2cccc3ccn(CC(=O)NCCN4CCC(c5cccs5)(N(C)C)CC4)c23)c(C)c1` [G_CC-19, N-[2-(4-Dimethylamino-4-thiophen-2-yl-piperidin-1-yl)-ethyl]-2-[7-[[(4-methoxy-2,6-dimethyl-phenyl)sulfonyl]amino]-1H-indol-1-yl]-acetamide], 68%. The result for `COc1cc(C)c(S(=O)(=O)Nc2ccc3ccn(CC(=O)N4CCC(CNC(=O)c5ccncc5)(N5CCN(C)CC5)CC4)c3c2)c(C)c1` [G_CC-108, N-[[1-[2-[6-[[(4-Methoxy-2,6-dimethyl-phenyl)sulfonyl]amino]-1H-indol-1-yl]-acetyl]-4-(4-methyl-piperazin-1-yl)-piperidin-4-yl]-methyl]-pyridine-4-carboxylic acid amide] reads 84%; that for `COc1cc(C)c(S(=O)(=O)Nc2ccc3ccn(CC(=O)N(C)CCC4CCC(c5ccccc5)(N(C)C)CC4)c3c2)c(C)c1` (centres unmarked) [G_CC-95, N-[2-(4-Dimethylamino-4-phenyl-cyclohexyl)-ethyl]-2-[6-[[(4-methoxy-2,6-dimethyl-phenyl)sulfonyl]amino]-1H-indol-1-yl]-N-methyl-acetamide], 96%; that for `CN1CCN(C2(c3cccc(F)c3)CCN(C(=O)Cn3ccc4ccc(N5Cc6cccc(Cl)c6C5=O)cc43)CC2)CC1` [G_CC-128, 7-Chloro-2-[1-[2-[4-(3-fluorophenyl)-4-(4-methyl-piperazin-1-yl)-piperidin-1-yl]-2-oxo-ethyl]-1H-indol-6-yl]-2,3-dihydro-isoindol-1-one], 61%. As to `COc1cc(C)c(S(=O)(=O)Nc2cccc3ccn(CC(=O)NC4CCC(c5ccccc5)(N5CCC5)CC4)c23)c(C)c1` (centres unmarked) [G_CC-17, N-[4-(Azetidin-1-yl)-4-phenyl-cyclohexyl]-2-[7-[[(4-methoxy-2,6-dimethyl-phenyl)sulfonyl]amino]-1H-indol-1-yl]-acetamide], the inhibition at 10 µM was 52%. Turning to `COc1cc(C)c(S(=O)(=O)Nc2ccc3ccn(CC(=O)N4CC5CC4CN5Cc4ccc(F)cc4)c3c2)c(C)c1` (centres unmarked) [G_CC-33, N-[1-[2-[2-[(4-Fluorophenyl)-methyl]-2,5-diazabicyclo[2.2.1]heptan-5-yl]-2-oxo-ethyl]-1H-indol-6-yl]-4-methoxy-2,6-dimethyl-benzenesulfonic acid amide], the inhibition at 10 µM stood at 71%.

As to `Cc1cc(S(=O)(=O)Nc2ccc3ccn(CCC(=O)NCCN4CCC(c5cccs5)(N(C)C)CC4)c3c2)c(C)cc1Cl` [G_CC-74, 3-[6-[[(4-Chloro-2,5-dimethyl-phenyl)sulfonyl]amino]-1H-indol-1-yl]-N-[2-(4-dimethylamino-4-thiophen-2-yl-piperidin-1-yl)-ethyl]-propionamide], the inhibition at 10 µM was found to be 51%. The result for `Cc1cc(S(=O)(=O)Nc2cccc3ccn(CC(=O)NCCN4CCC(c5cccs5)(N(C)C)CC4)c23)c(C)cc1Cl` [G_CC-27, 2-[7-[[(4-Chloro-2,5-dimethyl-phenyl)sulfonyl]amino]-1H-indol-1-yl]-N-[2-(4-dimethylamino-4-thiophen-2-yl-piperidin-1-yl)-ethyl]-acetamide] reads 56%; that for `O=C(CCn1ccc2cccc(NS(=O)(=O)c3ccccc3C(F)(F)F)c21)N1CCC2(CC1)CCN(c1ccncc1)CC2` [G_CC-52, N-[1-[3-Oxo-3-(3-pyridin-4-yl-3,9-diazaspiro[5.5]undecan-9-yl)-propyl]-1H-indol-7-yl]-2-(trifluoromethyl)-benzenesulfonic acid amide], 100%; that for `O=C(CCn1ccc2ccc(N3Cc4cccc(Cl)c4C3=O)cc21)N1CCN(c2ccncc2)CC1` [G_CC-63, 7-Chloro-2-[1-[3-oxo-3-(4-pyridin-4-yl-piperazin-1-yl)-propyl]-1H-indol-6-yl]-2,3-dihydro-isoindol-1-one], 100%. Regarding `Cc1cc(S(=O)(=O)Nc2cccc3ccn(CC(=O)N4CCC5(CC4)CCN(c4ccncc4)CC5)c23)c(C)cc1Cl` [G_CC-39, 4-Chloro-2,5-dimethyl-N-[1-[2-oxo-2-(3-pyridin-4-yl-3,9-diazaspiro[5.5]undecan-9-yl)-ethyl]-1H-indol-7-yl]-benzenesulfonic acid amide], the inhibition at 10 µM is 95%. The result for `COc1cc(C)c(S(=O)(=O)Nc2ccc3ccn(CC(=O)N4CCC5(CCN(Cc6ccccc6)C5)C4)c3c2)c(C)c1` (centres unmarked) [G_CC-10, N-[1-[2-(3-Benzyl-3,7-diazaspiro[4.4]nonan-7-yl)-2-oxo-ethyl]-1H-indol-6-yl]-4-methoxy-2,6-dimethyl-benzenesulfonic acid amide] reads 69%; that for `CN(CCCN1CCN(c2ccncc2)CC1)C(=O)CCn1ccc2ccc(N3Cc4cccc(Cl)c4C3=O)cc21` [G_CC-119, 3-[6-(4-Chloro-3-oxo-1,2-dihydro-isoindol-2-yl)-1H-indol-1-yl]-N-methyl-N-[3-(4-pyridin-4-yl-piperazin-1-yl)-propyl]-propionamide], 72%. Consider `CN(CCCN1CCN(c2ccncc2)CC1)C(=O)Cn1ccc2ccc(N3Cc4cccc(Cl)c4C3=O)cc21` [G_CC-138, 2-[6-(4-Chloro-3-oxo-1,2-dihydro-isoindol-2-yl)-1H-indol-1-yl]-N-methyl-N-[3-(4-pyridin-4-yl-piperazin-1-yl)-propyl]-acetamide], for which the inhibition at 10 µM turned out to be 52%.
